According to the NIST ThermoML archive (doi:10.1016/j.jct.2017.03.006):

Assay: molar heat capacity at constant pressure; xn = mol fraction of the nth substance listed
Conditions: Liquid, Flow calorimetry

CCC(C)O (stereo not drawn) [butan-2-ol] + Cc1ccc(C)c(C)c1
molar heat capacity at constant pressure [J/K/mol], x1 = 1
Conditions | 100 kPa | 5000 kPa | 10000 kPa | 15000 kPa | 20000 kPa | 25000 kPa
293.15 K | 189.1 | 187.1 | 185.5 | 185.2 | 183.6 | 182.7
313.15 K | 214.9 | 213.1 | 211.1 | 209.4 | 207.2 | 204.9

Cc1ccc(C)c(C)c1 [1,2,4-trimethylbenzene] + CCCCO
molar heat capacity at constant pressure [J/K/mol]
Conditions | x2 = 0 | x2 = 0.1002 | x2 = 0.2327 | x2 = 0.3969 | x2 = 0.53 | x2 = 0.637 | x2 = 0.7176 | x2 = 0.7975 | x2 = 0.8594 | x2 = 0.9131
293.15 K, 100 kPa | 216.2 | 220 | 219.5 | 214 | 209.9 | 203.6 | 197 | 192.5 | 186.5 | 181.9
293.15 K, 5000 kPa | 215 | 219 | 219 | 213.4 | 208.8 | 203.3 | 196 | 191.8 | 186.3 | 181.4
293.15 K, 10000 kPa | 213.3 | 217.3 | 218.1 | 212.8 | 207.7 | 202.4 | 194.9 | 190.8 | 185.1 | 181.1
293.15 K, 15000 kPa | 212.5 | 216 | 217.4 | 212.1 | 206.3 | 202 | 194.2 | 190.2 | 184.1 | 180.7
293.15 K, 20000 kPa | 210.8 | 215.4 | 216.9 | 211.3 | 205.9 | 201.1 | 193.3 | 189.6 | 183.4 | 180.3
293.15 K, 25000 kPa | 209.8 | 214.5 | 216.3 | 210.3 | 204.7 | 199.9 | 192 | 188.6 | 182.4 | 180
313.15 K, 100 kPa | 222.5 | 230.5 | 231.1 | 230 | 224.9 | 220.4 | 214.4 | 210.3 | 204.5 | 200.7
313.15 K, 5000 kPa | 221.2 | 229.4 | 230.1 | 228.9 | 223 | 218.9 | 212.6 | 209.1 | 203.7 | 199.4
313.15 K, 10000 kPa | 219.6 | 228.5 | 229.8 | 227.4 | 222.3 | 217.6 | 211.5 | 208.6 | 203.3 | 198.8
313.15 K, 15000 kPa | 218.5 | 227.3 | 228.5 | 226.4 | 220.5 | 216.5 | 210.2 | 207.8 | 202.6 | 197.7
313.15 K, 20000 kPa | 217.7 | 225.8 | 227.3 | 225.4 | 219.2 | 215.4 | 209.3 | 206.4 | 202 | 196.6
313.15 K, 25000 kPa | 217.1 | 225.5 | 227 | 224.3 | 218.4 | 213.6 | 208.1 | 206.1 | 201.3 | 196

Cc1ccc(C)c(C)c1 [1,2,4-trimethylbenzene] + CCC(C)O
molar heat capacity at constant pressure [J/K/mol]
Conditions | x2 = 0 | x2 = 0.1001 | x2 = 0.3 | x2 = 0.5298 | x2 = 0.6001 | x2 = 0.7001 | x2 = 0.7997 | x2 = 0.9001
293.15 K, 100 kPa | 216.2 | 219.6 | 221.6 | 223.7 | 216 | 213 | 206.9 | 200.5
293.15 K, 5000 kPa | 215 | 218.1 | 220.8 | 222.1 | 215.3 | 211.7 | 205.2 | 198.5
293.15 K, 10000 kPa | 213.3 | 217 | 219.6 | 220.3 | 213.9 | 210.4 | 203.7 | 196.8
293.15 K, 15000 kPa | 212.5 | 216.2 | 219 | 218.9 | 213.2 | 208.5 | 201.9 | 195.5
293.15 K, 20000 kPa | 210.8 | 215.2 | 218.3 | 217.6 | 211.7 | 206.9 | 200.7 | 194.6
293.15 K, 25000 kPa | 209.8 | 214.6 | 217.3 | 215.9 | 210.5 | 205.5 | 199.7 | 193.3
313.15 K, 100 kPa | 222.5 | 231.1 | 235.8 | 234.2 | 233.8 | 232.1 | 226.9 | 224.2
313.15 K, 5000 kPa | 221.2 | 230.3 | 233.7 | 232.8 | 232.6 | 230 | 224.8 | 221.1
313.15 K, 10000 kPa | 219.6 | 229.5 | 232.6 | 231.9 | 230.1 | 227.4 | 222.4 | 218.9
313.15 K, 15000 kPa | 218.5 | 228.8 | 231.1 | 230.9 | 229 | 225.3 | 220.6 | 217.3
313.15 K, 20000 kPa | 217.7 | 227.7 | 229.9 | 229.6 | 227.2 | 223.8 | 219.3 | 216
313.15 K, 25000 kPa | 217.1 | 226.4 | 229.5 | 228.2 | 225.6 | 222.7 | 218.1 | 214.1
